Laboratory results as given in article PMC11525561, “Gliflozins, sucrose and flavonoids are allosteric activators of lecithin-cholesterol acyltransferase” (Scientific Reports, 2024).
Like-named read-outs stand apart in the source and are kept apart here.

Legend:
LCAT [1] = test system: LCAT; design: method as in PMID 30479275; settings: MUP assay; cited from earlier work
LCAT [2] = biological target: T1, LCAT (Homo sapiens, UniProt P04180); experiment: DHE esterification acyltransferase assay with synthetic HDL (sHDL); format: biochemical; design: 6x histidine-tag (C); made in house; host or cells: 293T cells (ATCC CRL-3216); settings: for Emax / acyltransferase Emax: normalized against LCAT + DMSO; for acyltransferase efficiency: kcat divided by Km
T1 sequence (P04180 25-440): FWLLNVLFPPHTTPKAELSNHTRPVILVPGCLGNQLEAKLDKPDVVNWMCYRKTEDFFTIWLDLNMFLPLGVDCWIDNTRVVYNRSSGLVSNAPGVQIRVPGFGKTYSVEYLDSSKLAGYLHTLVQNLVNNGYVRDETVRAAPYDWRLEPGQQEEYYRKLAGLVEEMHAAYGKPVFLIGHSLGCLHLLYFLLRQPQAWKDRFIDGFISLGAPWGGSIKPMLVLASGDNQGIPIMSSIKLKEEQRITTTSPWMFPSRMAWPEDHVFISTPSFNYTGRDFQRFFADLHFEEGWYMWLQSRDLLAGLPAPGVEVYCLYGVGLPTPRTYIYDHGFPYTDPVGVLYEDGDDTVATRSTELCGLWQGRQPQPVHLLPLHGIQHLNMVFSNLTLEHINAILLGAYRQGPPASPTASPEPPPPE
Protocol: The acyltransferase activity of LCAT was measured by using the fluorescent sterol DHE as a substrate. DHE is integrated in the structure of discoidal synthetic HDL (sHDL) made of peptides (22A) and phospholipids (DMPC). As a consequence of the acyltransferase activity of LCAT, DHE is esterified and stored in the inner core of sHDL as DHE-ester. The esterification is responsible for a shift in the emission wavelength of DHE from 372 nm to 425 nm, allowing the exclusive detection of DHE-ester and monitoring of the reaction.
DHE-sHDL was prepared via thermal cycling. In a glass vial, DHE and DMPC dissolved in chloroform were mixed with a molar ratio of 1:9. The organic solvent was dried with Rotavapor R-200 (BUCHI, Switzerland) at room temperature. The resulting dried thin lipid layer was hydrated with assay buffer (PBS 20 mM + EDTA 1 mM) and vortexed until complete dissolution. The solution was homogenized in a water bath sonicator at room temperature until transparency. 22A peptides dissolved in assay buffer were added to the vial (lipid to protein 2:1 w/w). The solution was incubated via three heating-cooling cycles (50 °C x 3 min; 4 °C x 3 min). […] The acyltransferase activity assay was performed in 384 well low volume black microplates with a final volume of 25 µL. PAM (0.1 mg/mL in DMSO) or DMSO were incubated with LCAT (5 µg/mL in assay buffer + 60 µM albumin (Merck)) 1:100 v/v at 37 °C gently shaken. After 30 min incubation, 10 µL of each reaction (LCAT + DMSO or LCAT + PAM) was added to the plate. To start the reaction, 10 µL of DHE-sHDL solution were added in the wells. The plate was incubated for 1 h at 37 °C gently shaken. Reactions were stopped by the addition of 5 µL of stop solution (assay buffer + 5 units/mL cholesterol oxidase COx + 7% Triton X-100). Plates went through a second round of incubation at 37 °C gently shaken for 1 h to extinguish the residual fluorescence of unesterified DHE. […] DHE-ester fluorescence was detected at an excitation wavelength of 325 nm and an emission wavelength of 425 nm using Varioskan LUX. Reactions without LCAT were used for background subtraction, while reactions without LCAT and stop solution without COx were used to generate a standard curve for DHE (λex 325 nm, λem 372 nm). Reactions were performed in triplicates with three independent experiments. Due to the light sensitivity of DHE, samples were protected from light during the entire preparation and assay. Data was processed via background subtraction, divided by the slope of the standard curve to obtain the amount of DHE-esters in every well and then divided further by the reaction time to determine the rate. The acyltransferase activity (DHE-ester formed) was plotted as a function of the DHE concentration. Data were fitted to the Michaelis-Menten kinetic equation by non-linear regression. Apparent Vmax and Km were calculated using OriginPro 2021b software, while acyltransferase efficiency of each PAM was calculated by dividing kcat by Km. […] The acyltransferase activities of our PAMs were compared to the reference compound A (Supplementary Fig. 2).
PAMs were diluted in DMSO reaching a final concentration of 0.001, 0.01, 0.1, 1 and 10 µM in the wells. Reactions were conducted exactly as above, using the same LCAT concentration and the same volumes. The experiment was performed in triplicate with three independent experiments. Fluorescence signals were processed via background subtraction (DHE-sHDL + buffer + stop solution), divided by the slope of the standard curve to obtain the amount of DHE-esters in every well and then divided further by the reaction time to determine the rate. Data were normalized against no PAM control (LCAT + DMSO). The acyltransferase activity (DHE-ester formed) was plotted as a function of the PAM concentration.

[3] = design: method as in PMID 9827549, PMID 19110406; settings: cited from earlier work
LCAT [4] = biological target: T1, LCAT; experiment: MUP based phospholipase assay; format: biochemical; design: 6x histidine-tag (C); made in house; host or cells: 293T cells (ATCC CRL-3216); settings: for phospholipase efficiency: kcat divided by Km; for increase of phospholipase efficiency / increase of phospholipase Vmax: versus LCAT without compounds
Protocol: The phospholipase activity of LCAT was evaluated by using MUP as a substrate. The reaction was monitored with the increased fluorescence signal due to the formation of the reaction product MU. The assay was performed at room temperature in reaction buffer (0.1 M sodium phosphate buffer, pH 7.4). 55 µL of LCAT in reaction buffer (0.01 mg/mL) were incubated at 37 °C gently shaken with 0.41 µL of PAM (2 mg/mL in DMSO) or DMSO. After 1 h incubation, 2 µL of each reaction (LCAT + DMSO, LCAT + PAM, reaction buffer + PAM) was added to a black 384 well microplate, low volume (Corning). A MUP stock solution 1 mg/mL in DMSO + 3% Triton X-100 was diluted in a reaction buffer to 0, 10, 40, 60 and 120 µM. 18 µL of each dilution was added to the plate to start the reaction. The MUP stock solution was diluted immediately before use due to the self-hydrolysis of MUP to MU in aqueous buffers. The phospholipase activity of LCAT was monitored by fluorescence signal using Varioskan LUX (Thermo Scientific) plate reader at an excitation wavelength of 340 nm and an emission wavelength of 460 nm every 10 min for 60 min. Background signal due to MUP self-hydrolysis was subtracted from each result. Reactions were performed in triplicates with three independent experiments. Reaction rates were obtained by dividing the data by the assay time. To calculate the amount of MU produced in each reaction, a standard curve was generated from a MU stock solution 100 mM in DMSO and diluted further in reaction buffer. The phospholipase activity (MU mM) was plotted as a function of the MUP concentration. Data were fitted to the Michaelis-Menten kinetic equation by non-linear regression. Apparent Vmax and Km were calculated with OriginPro 2021b (MA, USA) software (version 9.8.5.212), while phospholipase efficiency of each PAM was calculated by dividing kcat by Km. The absence of fluorescence interference coming from PAMs was checked at an excitation wavelength of 340 nm before starting the assay (Supplementary Fig. 3). The phospholipase activities of our PAMs were compared to a positive control compound A (Supplementary Fig. 2)[17].

LCAT [5] = biological target: T1, LCAT; design: method as in PMID 4214409; settings: blood of diabetes patients before and after insulin treatment; cited from earlier work
[6] = cited from earlier work
[7] = DHE 50 µM, PAM concentration varied
[8] = PAM 3 µM, DHE concentration varied, mean ± SEM
[9] = PAM 3 µM, versus LCAT without compounds
[10] = MUP concentration varied, mean ± SEM
[11] = DHE 50 µM, PAM concentration varied, mean ± SEM of triplicate, read-out: acyltransferase EC50

Structure (SMILES)	increase of LCAT acyltransferase activity (LCAT [2]; [7])	Emax (LCAT [2]; DHE 50 µM) [%]	acyltransferase Vmax (LCAT [2]; [8]) [µM h^− 1]	improvement of acyltransferase efficiency (LCAT [2]; [9])	acyltransferase efficiency (LCAT [2]; PAM 3 µM) [µM⁻¹ h⁻¹]	phospholipase Vmax (LCAT [4]; [10]) [µM h^− 1]	phospholipase efficiency (LCAT [4]) [µM⁻¹ h⁻¹]	EC50 (LCAT [2]; [11]) [nM]	further results
N#Cc1cnc(N2CCC(c3n[nH]c4c3C(O)(C(F)(F)F)CC(=O)N4)CC2)cc1C(F)(F)F (stereo not shown) [1b]	–	–	–	–	–	–	–	–	phospholipase activity compared to LCAT (LCAT [1]): 230%
OC[C@H]1O[C@@](CO)(O[C@H]2O[C@H](CO)[C@@H](O)[C@H](O)[C@H]2O)[C@@H](O)[C@@H]1O [sucrose]	roughly 100%	176 ± 12.5	11.18 ± 0.80	roughly 100%	38.88 ± 9.05	8.79 ± 0.81	22.43 ± 4.38	–	EC50 (LCAT [2]): 120 ± 60 nM; oral bioavailability [3]: poor; increase of phospholipase efficiency (LCAT [4]): 180%
OC[C@H]1OC(O)[C@H](O)[C@@H](O)[C@@H]1O (stereo partly shown) [glucose]	–	–	–	–	–	–	–	–	activation of LCAT (LCAT [5]): cannot activate LCAT
O=C1c2c(O)cc(O)cc2OC(c2ccc(O)c(O)c2)C1O (stereo not shown) [taxifolin]	roughly 100%	211 ± 21.4	13.55 ± 0.67	–	22.69 ± 1.94	10.71 ± 0.49	19.60 ± 0.01	120 ± 40	–
O=c1cc(-c2ccc(O)c(O)c2)oc2cc(O)cc(O)c12 [luteolin]	roughly 100%	191 ± 16.1	11.71 ± 0.43	roughly 100%	36.95 ± 2.13	10.91 ± 1.50	17.11 ± 4.72	100 ± 10	–
CCOc1ccc(Cc2cc([C@@H]3O[C@H](CO)[C@@H](O)[C@H](O)[C@H]3O)ccc2Cl)cc1 [dapagliflozin]	roughly 100%	196 ± 13.4	12.13 ± 0.46	–	31.54 ± 2.93	11.68 ± 1.15	12.82 ± 2.80	80 ± 40	bound to proteins in plasma [6]: 91%; increase of phospholipase Vmax (LCAT [4]): 70%
Cc1ccc([C@@H]2O[C@H](CO)[C@@H](O)[C@H](O)[C@H]2O)cc1Cc1ccc(-c2ccc(F)cc2)s1 [canagliflozin]	150%	–	14.78 ± 0.34	roughly 100%	44.46 ± 2.43	15.70 ± 0.66	34.63 ± 0.97	80 ± 20	acyltransferase Emax (LCAT [2]; DHE 50 µM): 254.34±23.72%; Km (LCAT [2]; [8]): 8.37 ± 0.57 µM; increase of acyltransferase Vmax (LCAT [2]; [9]): 70%; bound to proteins in plasma [6]: 99%; Km (LCAT [4]; [10]): 22.7 ± 0.95 µM; increase of phospholipase Vmax (LCAT [4]): 130%; increase of phospholipase efficiency (LCAT [4]): 340%
COC(=O)Nc1nc2ccc(C(=O)c3ccccc3)cc2[nH]1 [mebendazole]	no effect	–	6.58 ± 0.26	–	18.92 ± 2.45	7.95 ± 1.90	6.28 ± 1.06	–	effect on acyltransferase activity at 21.6 µM DHE (LCAT [2]; 21.6 µM DHE, PAM 3 µM): inhibited activity slightly; acyltransferase EC50 (LCAT [2]; DHE 50 µM, PAM concentration varied, mean ± SEM of triplicate): no effect; acyltransferase Emax (LCAT [2]; DHE 50 µM): no effect
